For series [1], the target named is T1, human recombinant acetylcholinesterase (hrAChE) (Homo sapiens, UniProt P22303).
T1 construct: purchased Sigma-Aldrich
In words: Cholinesterase inhibition assay (Ellman method), hrAChE. The class given is biochemical. The settings on record: for Ki: inhibition constant, Dixon plot, substrate 0.125, 0.25, 0.5 mM. Here is the method:
(§1) Cholinesterase activities were measured by the Ellman method[58] adapted for 96-well microtiter plates, as previously described.[59] The compounds were first screened for the IC50 determination, and for those with IC50 < 200 μM, the inhibitory constants (Ki) were determined. Stock solutions of the tested compounds (5 mg/mL) and of the positive control (1 mg/mL neostigmine bromide, Sigma-Aldrich, St. Louis, MO, USA) were prepared in 100% MeOH. These solutions were added to the wells and gradually diluted in 100 mM potassium phosphate buffer (pH 7.4) to the final volume of 50 μL. Acetylthiocholine chloride and 5,5′-dithiobis-2-nitrobenzoic acid were then dissolved in the same buffer to the respective final concentrations of 1 and 0.5 mM and added (100 μL) to the wells of the microtiter plates. eeAChE, hrAChE, or hsBChE (all Sigma-Aldrich) were dissolved in the same buffer to 0.0075 U/mL. A 50 μL amount of each of the cholinesterases was added to start the reactions, which were followed spectrophotometrically at 405 nm and 25 °C for 5 min using a kinetic microplate reader (Dynex Technologies Inc., Chantilly, VA, USA). Blank reactions without the inhibitors were run in the presence of the appropriate dilution of MeOH in 100 mM potassium phosphate buffer (pH 7.4). The concentrations of the compounds inducing 50% inhibition of enzyme activity (IC50) were determined and expressed as mean values ± SEM. To determine the inhibition constants (Ki), the kinetics were monitored using three different final substrate concentrations (0.125, 0.25, 0.5 mM). Each measurement was repeated at least three times. Data were analyzed using OriginPro software (OriginPro 2020, OriginLab Corporation, Northampton, MA, USA).
In general terms: Ellman's reagent forms a yellow product with free thiols.

The target in series [2] is T2, electric eel acetylcholinesterase (eeAChE) (Electrophorus electricus, UniProt O42275).
T2 construct: purchased Sigma-Aldrich
T2 sequence (O42275 24-633): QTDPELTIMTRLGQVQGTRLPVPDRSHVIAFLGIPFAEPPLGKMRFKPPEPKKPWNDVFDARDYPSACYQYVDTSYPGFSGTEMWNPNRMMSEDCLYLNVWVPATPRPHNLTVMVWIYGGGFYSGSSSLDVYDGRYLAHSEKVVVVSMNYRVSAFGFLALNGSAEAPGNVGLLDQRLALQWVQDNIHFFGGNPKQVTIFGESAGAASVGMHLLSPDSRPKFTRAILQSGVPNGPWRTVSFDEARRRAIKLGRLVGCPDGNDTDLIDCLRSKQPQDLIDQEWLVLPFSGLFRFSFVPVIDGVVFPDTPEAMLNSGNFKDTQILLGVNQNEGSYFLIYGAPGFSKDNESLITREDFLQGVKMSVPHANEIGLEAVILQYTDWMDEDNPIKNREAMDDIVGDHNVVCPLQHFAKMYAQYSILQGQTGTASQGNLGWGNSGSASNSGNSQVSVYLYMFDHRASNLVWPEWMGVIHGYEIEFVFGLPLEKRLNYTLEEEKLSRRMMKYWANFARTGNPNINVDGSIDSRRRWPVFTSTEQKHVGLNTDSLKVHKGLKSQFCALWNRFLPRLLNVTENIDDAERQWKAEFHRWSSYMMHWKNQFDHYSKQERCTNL
In words: Cholinesterase inhibition assay (Ellman method), eeAChE. Type of series: biochemical. The settings on record: for Ki: inhibition constant, Dixon plot, substrate 0.125, 0.25, 0.5 mM. Here is the method:
as §1

In series [3] the target is T3, horse serum butyrylcholinesterase (hsBChE) (Equus caballus, UniProt P81908).
T3 construct: purchased Sigma-Aldrich; host or cells: horse serum
T3 sequence (P81908 whole entry): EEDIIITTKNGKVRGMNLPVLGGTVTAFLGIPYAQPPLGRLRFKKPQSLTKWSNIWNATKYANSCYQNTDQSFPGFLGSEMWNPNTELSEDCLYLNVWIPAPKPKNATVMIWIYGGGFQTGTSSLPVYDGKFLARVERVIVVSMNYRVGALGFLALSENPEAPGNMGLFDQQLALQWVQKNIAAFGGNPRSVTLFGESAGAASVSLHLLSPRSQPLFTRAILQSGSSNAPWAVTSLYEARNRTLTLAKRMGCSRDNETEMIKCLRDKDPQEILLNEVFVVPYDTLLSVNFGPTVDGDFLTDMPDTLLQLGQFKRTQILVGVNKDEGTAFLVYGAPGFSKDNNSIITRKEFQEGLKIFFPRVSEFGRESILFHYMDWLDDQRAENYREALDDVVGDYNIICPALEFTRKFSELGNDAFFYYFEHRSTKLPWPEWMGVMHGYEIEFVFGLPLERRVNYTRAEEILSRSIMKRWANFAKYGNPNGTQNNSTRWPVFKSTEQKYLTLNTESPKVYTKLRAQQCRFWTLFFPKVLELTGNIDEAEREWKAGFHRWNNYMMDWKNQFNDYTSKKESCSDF
In words: biochemical. Type of series: biochemical. The settings on record: for IC50: means ± SEM of three independent measurements; for Ki: inhibition constant, Dixon plot, substrate 0.125, 0.25, 0.5 mM; for selectivity for BChE: hsBChE versus AChEs. Here is the method: as §1

The nature of series [4]: Storage stability of isolated compounds (oxidation). The class given is physicochemical. Here is the method: These findings are of interest as they contrast with observations from the present work. In this study, no special precautions were taken in the isolation of 1 and 2, although the laboratory studies were conducted relatively quickly: only 9 days elapsed from the collection of fresh plants to the acquisition of NMR data (see Supporting Information, Figure S31 for a detailed isolation timeline). […] Comparison of the present methodology with the approaches used by Tsai and Lee[25] and Paulsen et al.[26] has led to the hypothesis that the use of a strong acid (0.1% TFA, pH ∼2.0) during HPLC may be an important component of compound stability. In the present investigation, 0.1% TFA was used in both solvents during HPLC purification, and the same was done by Tsai and Lee. Conversely, Paulsen et al. opted for a three-solvent system of 10 mM (NH4)2SO3, 0.2% triethylamine adjusted with acetic acid to pH 4.0 (solvent A), CH3CN (solvent B), and MeOH (solvent C). Their observation that 13,14-dihydrocoptisine oxidized repeatedly after HPLC leads to the present conclusion that these conditions may have been insufficiently acidic to stabilize the compound. However, this was not tested in the current work. Further, given the varied substitution of the aromatic motifs in these compounds, the role these groups play upon stability cannot be yet ascertained. […]

The nature of series [5]: Protoberberine oxidation analysis in P. setiferum capsules (oven 40 °C vs freezer -20 °C, LC-MS). The class given is physicochemical, Papaver setiferum. The settings on record: 2 weeks. Here is the method: The alkaloid analysis was based on De Vos et al. (2007).[57]P. setiferum material was collected at four time points: (1) approximately 3 days before flowering, (2) during flowering, (3) approximately 2 weeks after flowering, and (4) approximately 4 weeks after flowering (by which point the flowers had dried and turned brown). At each collection time, a sample of the aerial parts (three separate stems, each with several leaves and a capsule) was collected and stored at −20 °C. The samples were later separated into capsules, leaves, and stems and ground into a powder using a mortar and pestle. One hundred milligrams (±5 mg) of each was transferred into an Eppendorf tube, and each weight was recorded. Cold MeOH (0.1% FA) was added to each in a 1:10 w/v ratio, and the tubes were sonicated for 30 min. The samples were centrifuged for 5 min at 13 000 rpm, and the supernatant was filtered (0.2 μm). A pooled sample was prepared by taking 20 μL from each sample and combining into a single vial. All samples were diluted 1:10 in Milli-Q water prior to LC-MS analysis. The samples were randomly ordered for LC-MS, with the pooled sample run interspaced after every fourth sample. An injection volume of 2 μL was used for each sample. The solvents used were 5% CH3CN (0.1% FA) (solvent A) and 95% CH3CN (0.1% FA) (solvent B). The column used was a Phenomenex Kinetex XB-C18 (2.6 μm, 100 Å, 3.0 × 100 mm) with a linear solvent gradient from 15% to 50% solvent B over 20 min. Alkaloids were identified by comparison of retention times with authentic standards.
From three P. setiferum capsules [taken from time point (1) in the time series analysis], two lots of 100 ± 5 mg of material were weighed into Eppendorf tubes. One set of samples was stored with the lids open in the oven at 40 °C, while the others were stored in the freezer at −20 °C. After 2 weeks, the samples were analyzed by LC-MS, as described above.

The conditions of series [6]: C. majus material; cited from earlier work.
The mark [7] stands for this setting: means ± SEM of three independent measurements, read-out: hrAChE IC50.
Setting [8] is: means ± SEM of three independent measurements, read-out: eeAChE IC50.
[9] abbreviates: AChEs (eeAChE and hrAChE), compared to 2.

Like-named read-outs stand apart in the source and are kept apart here. Bounds are passed on as bounds.

T1 sequence (P22303 32-614): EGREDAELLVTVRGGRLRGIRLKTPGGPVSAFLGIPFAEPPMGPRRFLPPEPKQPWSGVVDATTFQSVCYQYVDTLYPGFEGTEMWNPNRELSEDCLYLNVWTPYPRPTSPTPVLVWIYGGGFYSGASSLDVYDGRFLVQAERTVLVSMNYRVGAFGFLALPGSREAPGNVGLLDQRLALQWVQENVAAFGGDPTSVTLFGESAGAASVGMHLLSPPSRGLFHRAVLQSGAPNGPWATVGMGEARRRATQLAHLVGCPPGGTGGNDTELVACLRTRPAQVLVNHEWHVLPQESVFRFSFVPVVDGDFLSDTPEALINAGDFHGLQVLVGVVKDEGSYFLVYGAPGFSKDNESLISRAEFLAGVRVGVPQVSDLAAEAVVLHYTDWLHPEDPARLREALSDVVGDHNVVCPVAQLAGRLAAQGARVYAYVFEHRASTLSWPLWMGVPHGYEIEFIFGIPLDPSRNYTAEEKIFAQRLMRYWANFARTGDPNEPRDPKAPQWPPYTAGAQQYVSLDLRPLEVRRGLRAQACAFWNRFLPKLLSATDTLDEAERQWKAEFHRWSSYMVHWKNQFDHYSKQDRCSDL

With `O=[N+]([O-])CCc1ccc(O[C@@H]2O[C@H](CO[C@@H]3OC[C@@H](O)[C@H](O)[C@H]3O)[C@@H](O)[C@H](O)[C@H]2O)cc1` [Compound 11, thalictricoside], the IC50 in series [1] (setting [7]), in series [2] (setting [8]) and in series [3] was greater than 342 µM throughout.
As to `COc1cc2c(c3c1OCOC3)C[C@H]1c3c(cc4c(c3OC)OCO4)CCN1C2` [Compound 4, orientalidine], the values for the Ki in series [1], in series [2] and in series [3] were 13.7 µM, 2 µM and 35.5 µM, respectively. Moreover, the IC50 worked out at 19.9 ± 1.1 µM in series [1] (setting [7]), 5 ± 1 µM in series [2] (setting [8]) and 104 ± 4 µM in series [3]. Moreover, in series [4] (1:1 mixture of 4 and 5 (fraction C.12), four months), the “oxidation on standing in an NMR tube” value is reported as “complete oxidation of 4 to 5”.
Turning to `COc1cc2c(c3c1OCOC3)C[C@H]1c3c(cc4c(c3OC)OCO4)CC[N+]1=C2.O=C([O-])C(F)(F)F` [Compound 2, 7,8-Didehydroorientalidine TFA salt], the Ki in series [1] worked out at 6.3 µM; in series [2], 1 µM; in series [3], 47 µM. Also, the IC50 in series [1] (setting [7]) stood at 18.9 ± 1.8 µM; in series [2] (setting [8]), 3.4 ± 4.7 µM; in series [3], 98.5 ± 0.6 µM. Besides, in series [5], the “change of concentration in oven-dried capsules versus capsules stored at -20 °C” value (from here on “change of concentration”) is given as “minor decrease in concentration”.
Consider `COc1cc2c[n+]3c(cc2c2c1OCOC2)-c1c(cc2c(c1OC)OCO2)CC3` [Compound 5, 7,8,13,14-dehydroorientalidine], for which the “change of concentration” value in series [5] was “below the level of detection”.
`COc1cc2c(cc1O)[C@H](Cc1ccc(OC)c(OC)c1)[N+](C)(C)CC2` [Compound 9, N-methylcodamine]: the IC50 was greater than 342 µM in series [1] (setting [7]), greater than 342 µM in series [2] (setting [8]) and 221 ± 1 µM in series [3].
Turning to `COc1cc(C[C@H]2c3cc(O)c(OC)cc3CC[N+]2(C)C)ccc1O` [Compound 8, N-methylorientaline], the IC50 in series [1] (setting [7]) is greater than 342 µM; in series [2] (setting [8]) it was greater than 342 µM; in series [3], 342 ± 3 µM.
As to `COc1cc2c3c(c1O)-c1c(cccc1OC)C[C@@H]3N(C)CC2` [Compound 6, isothebaine], the IC50 in series [1] is greater than 342 µM; in series [2] (setting [8]), 260 ± 1 µM; in series [3], 2.8 ± 3 µM. The Ki turned out to be 68 µM in series [2] and 0.6 µM in series [3]. Also, in series [3], the “selectivity for BChE” value was “good selectivity for BChE”.
Regarding `COc1cc2c[n+]3c(cc2c(CO)c1OC)-c1c(cc2c(c1OC)OCO2)CC3` [Compound 3, alborine], the Ki in series [1] stood at 13.2 µM; in series [2], 3.6 µM; in series [3] it was 43.7 µM. Also, the IC50 in series [1] (setting [7]) turned out to be 20 ± 0.9 µM; in series [2] (setting [8]), 6.8 ± 4.5 µM; in series [3], 63.1 ± 0.5 µM. Also, in series [5], the “change of concentration” value is “approximately doubling”.
For `COC1=C[C@]23CCN(C)[C@H](Cc4ccc(OC)c(O)c42)C3=CC1=O` [Compound 10, salutaridine], the IC50 in series [1] and in series [2] was greater than 342 µM each time.
As for `COc1cc2c(c(CO)c1OC)C[C@H]1c3c(cc4c(c3OC)OCO4)CC[N+]1=C2.O=C([O-])C(F)(F)F` [Compound 1, 7,8-Didehydromecambridine TFA salt], the figures for the Ki in series [1], in series [2] and in series [3] were 31 µM, 7 µM and 58.5 µM, respectively. Moreover, the IC50 in series [1] (setting [7]) is 66.6 ± 2.4 µM; in series [2] (setting [8]), 10.3 ± 1.1 µM; in series [3], 100 ± 5 µM. Moreover, the “change of concentration” value in series [5] is recorded as “minor decrease in concentration”. In series [2] (setting [9]), the “lower activity against AChEs when compared to 2” value was “approximately 3 fold”. For the same compound, in series [2] (setting [9]), the “lower inhibition constants when compared to 2” value is given as roughly 6 fold. Further, the “oxidation of dried sample on storage” value in series [4] (TFA salt, 0.7 mg, uncapped glass vial, room temperature, approximately 8 weeks) was “no oxidation to 3”.
In the case of `COc1cc2c3c(c1O)-c1c(cccc1OC)C[C@@H]3[N+](C)(C)CC2` [Compound 7, N-methylisothebainium], the values for the IC50 in series [1] (setting [7]), in series [2] (setting [8]) and in series [3] were greater than 342 µM, greater than 342 µM and 7.1 ± 2.7 µM, respectively. For the same compound, in series [3], the “selectivity for BChE” value was “good selectivity for BChE”. Moreover, the Ki in series [3] came to 2.2 µM.
For the compound `C1=[N+]2CCc3cc4c(cc3C2Cc2ccc3c(c21)OCO3)OCO4` (stereo not shown) [13,14-dihydrocoptisine], the “oxidation after oven-drying of plant material” value in series [6] is “complete oxidation”.

Broadly, the IC50 is the concentration needed to halve the response being measured. In general, Ki refers to the dissociation constant of the complex between target and ligand, obtained from inhibition or displacement.
